According to patent US12453731B2, “Aniline-based WDR5 protein-protein interaction inhibitor, and preparation method and use thereof” (CHINA PHARMACEUTICAL UNIVERSITY, priority 2019, dated 2025):
Where two headings read alike, the source gives them in different places.

How the values were obtained:
MLL1-WDR5 PPI = MLL1-WDR5 PPI (Homo sapiens (Human), UniProt P61964); assay: fluorescent probe assay of MLL1-WDR5 protein-protein interaction inhibition; assay type: binding; details: fluorescent probe based on MLL1 peptide, incubation 0.5 hrs, read-out: MLL1-WDR5 PPI inhibiting activity IC50
Description: In the present disclosure, a fluorescent molecular probe was constructed based on a MLL1 peptide fragment binding to WDR5, for use as a method for study on an aniline compound interfering with WDR5 protein-protein interaction, to determine an inhibition rate of the aniline compound at various concentrations, and then compute the IC50 value. Specific experimental steps: 20 μL of WDR5 protein, 20 μL of a fluorescent probe, and 20 μL of a compound of different concentration gradients were added to a 384-well plate respectively. After incubation for 0.5 hrs, the fluorescence was read on a multifunctional microplate reader at an excitation wavelength of 485 nm and an emission wavelength of 535 nm, to compute the mP value. The inhibition rate was computed as per the formula below, and then the IC50 value was computed using GraphPad software.

[1] = test system: methylation level of H3K4; assay: inhibition of the methylation level of H3K4 (methyltransferase activity); assay type: biochemical
[2] = test system: MV4-11 human acute mononuclear leukemia cells; assay: anti-proliferative activity against leukemia cells MV4-11; assay type: cell-based; details: read-out: GI50 (MV-411)
From the text: (§1) Some compounds of the present disclosure have also been tested for the antiproliferative activity against leukemia cells.

[3] = test system: Molm-13 human acute myeloid leukemia cells; assay: anti-proliferative activity against leukemia cells Molm-13; assay type: cell-based
From the text: as §1

[4] = Homo sapiens, MV4-11, MV4-11 cells
[5] = Homo sapiens, MOLM-13, Molm-13 cells

Structure (SMILES)	IC50 (MLL1-WDR5 PPI)	Whether the methylation level of H3K4 was inhibited [1]	GI50 [2, 4]	GI50 [3, 5]	GI50 ([2]; MV4-11 cells)	GI50 ([3]; Molm-13 cells)
CCN1CCN(C(=O)c2ccc(-c3ccc(N4CCN(C)CC4)c(Nc4ncnc(Cl)c4N)c3F)cc2)CC1 [Example 58, (3″-((5-amino-6-chloropyrimidin-4-yl)amino)-2′-fluoro-4″-(4-methylpiperazin-1-yl)-[1,1′-biphenyl]-4-yl)(4-ethylpiperazin-1-yl)methanone]	112 nM	Yes	19.5 µM	20.3 µM		
CN1CCN(c2ccc(-c3ccc(C(=O)NCCN4CCCC4)cc3)cc2Nc2ncnc(Cl)c2N)CC1 [Example 29, 3″-((5-amino-6-chloropyrimidin-4-yl)amino)-4″-(4-methylpiperazin-1-yl)-N-(2-(pyrrolidin-1-yl)ethyl)-[11,1′-biphenylyl]-4-carboxamide]	370 nM	Yes	16.6 µM	18.2 µM		
CN1CCN(c2cc(F)c(-c3ccc(C(=O)NCCN4CCOCC4)cc3)cc2Nc2ncnc(Cl)c2N)CC1 [Example 68]	74 nM	Yes	27.7 µM	23.1 µM		
CN1CCN(c2ccc(-c3ccc(C(=O)N4CCOCC4)cc3)c(F)c2Nc2ncnc(Cl)c2N)CC1 [Example 55, (3″-((5-amino-6-chloropyrimidin-4-yl)amino)-2′-fluoro-4″-(4-methylpiperazin-1-yl)-[1,1′-biphenyl]-4-yl)(morpholino)methanone]	117 nM	Yes	22.5 µM	28.9 µM		
CN1CCN(c2ccc(-c3ccoc3)cc2Nc2ncnc(Cl)c2N)CC1 [Example 43, 6-chloro-N^4-(5-(furan-3-yl)-2-(4-methylpiperazin-1-yl)phenyl)pyrimidine-4,5-diamine]	11400 nM					
CN1CCN(c2ccc(-c3ccncc3)cc2Nc2ncnc(Cl)c2N)CC1 [Example 45, 6-chloro-N^4-(2-(4-methylpiperazin-1-yl)-5-(pyridin-4-yl)phenyl)pyrimidine-4,5-diamine]	560 nM		27.3 µM	23.2 µM		
CN1CCN(c2ccc([N+](=O)[O-])cc2Nc2ncnc(Cl)c2N)CC1 [Example 7, 6-chloro-N^4-(2-(4-methylpiperazin-1-yl)-5-nitrophenyl)pyrimidine-4,5-diamine]	2660 nM					
CN1CCN(c2ccc(-n3cc(C(=O)NCCN4CCCC4)nn3)cc2Nc2ncnc(Cl)c2N)CC1 [Example 53, 1-(3-((5-amino-6-chloropyrimidin-4-yl)amino)-4-(4-methylpiperazin-1-yl)phenyl)-N-(2-(pyrrolidin-1-yl)ethyl)-1H-1,2,3-triazole-4-carboxamide]	1610 nM					
CN1CCN(C(=O)c2cn(-c3ccc(N4CCN(C)CC4)c(Nc4ncnc(Cl)c4N)c3)nn2)CC1 [Example 49, (1-(3-((5-amino-6-chloropyrimidin-4-yl)amino)-4-(4-methylpiperazin-1-yl)phenyl)-1H-1,2,3-triazole-4-yl)(4-methylpiperazin-1-yl)methanone]	1250 nM					
Cc1c(-c2ccc(C(=O)N(C)C)cc2)ccc(N2CCN(C)CC2)c1Nc1ncnc(Cl)c1N [Example 65, 3″-((5-amino-6-chloropyrimidin-4-yl)amino)-N,N,2′-trimethyl-4″-(4-methylpiperazin-1-yl)-[1,1′-biphenyl]-4-carboxamide]	671 nM					
CN1CCN(c2ccc(-n3cc(C(=O)NCCCN4CCOCC4)nn3)cc2Nc2ncnc(Cl)c2N)CC1 [Example 48, 1-(3-((5-amino-6-chloropyrimidin-4-yl)amino)-4-(4-methylpiperazin-1-yl)phenyl)-N-(3-morpholinopropyl)-1H-1,2,3-triazole-4-carboxamide]	1090 nM					
CN1CCN(c2ccc(-n3cc(C(=O)N(C)C)nn3)cc2Nc2ncnc(Cl)c2N)CC1 [Example 51, 1-(3-((5-amino-6-chloropyrimidin-4-yl)amino)-4-(4-methylpiperazin-1-yl)phenyl)-N,N-dimethyl-1H-1,2,3-triazole-4-carboxamide]		Yes			38 µM	39 µM
Cc1c(F)c(N)cc(C(=O)Nc2cc(-c3ccc(N)cc3)ccc2N2CCN(C)CC2)c1Cl [DDO-2084, reference compound]	338000 nM	Yes			17.7 ± 2.3 µM	
COc1ccc(-c2ccc(N3CCN(C)CC3)c(Nc3ncnc(Cl)c3N)c2)cc1 [Example 42, 6-chloro-N-(4′-methoxyl-4-(4-methylpiperazin-1-yl)-[1,1′-biphenyl]-3-yl)pyrimidine-4,5-diamine]	1560 nM					
CN1CCN(c2ccc([N+](=O)[O-])cc2Nc2cc(Cl)ncn2)CC1 [Example 2, 6-chloro-N-(2-(4-methylpiperazin-1-yl)-5-nitrophenyl)pyrimidine-4-amine]	10300 nM					
COC(=O)c1ccc(-c2cc(Nc3ncnc(Cl)c3N)c(N3CCN(C)CC3)cc2F)cc1 [Example 66, Methyl 5′-((5-amino-6-chloropyrimidin-4-yl)amino)-2′-fluoro-4′-(4-methylpiperazin-1-yl)-[1,1′-biphenyl]-4-carboxylate]	40 nM	Yes	14.4 µM			
Cc1cc(N2CCN(C)CC2)c(Nc2ncnc(Cl)c2N)cc1-c1ccc(C(=O)NCCCN2CCOCC2)cc1 [Example 74, 5″-((5-amino-6-chloropyrimidin-4-yl)amino)-2′-methyl-4″-(4-methylpiperazin-1-yl)-N-(3-morpholinopropyl)-[1,11,1′-terphenyl]-4-carboxamide]	465 nM	Yes				
CN1CCN(c2ccc(-c3ccc(NC(=O)c4ccccc4)cc3)cc2Nc2ncnc(Cl)c2N)CC1 [Example 37, N-(3″-((5-amino-6-chloropyrimidin-4-yl)amino)-4″-(4-methylpiperazin-1-yl)-[1,1′-biphenyl]-4-yl)benzenecarboxamide]	5550 nM	Yes				
CN1CCN(c2ccc(-c3cncnc3)cc2Nc2ncnc(Cl)c2N)CC1 [Example 44, 6-chloro-N^4-(2-(4-methylpiperazin-1-yl)-5-(pyrimidine-5-yl)phenyl)pyrimidine-4,5-diamine]	5710 nM					
COC(=O)c1ccc(-c2cc(Nc3ncnc(Cl)c3N)c(N3CCN(C)CC3)cc2C)cc1 [Example 73, Methyl 5′-((5-amino-6-chloropyrimidin-4-yl)amino)-2′-methyl-4′-(4-methylpiperazin-1-yl)-[1,1′-biphenyl]-4-carboxylate]	316 nM	Yes				
CN(C)CCNC(=O)c1cn(-c2ccc(N3CCN(C)CC3)c(Nc3ncnc(Cl)c3N)c2)nn1 [Example 52, 1-(3-((5-amino-6-chloropyrimidin-4-yl)amino)-4-(4-methylpiperazin-1-yl)phenyl)-N-(2-(dimethylamino)ethyl)-1H-1,2,3-triazole-4-carboxamide]	1560 nM					
CN1CCN(c2ccc(-n3cc(C(=O)N(C)C)nn3)cc2Nc2ncnc(Cl)c2N)CC1 [Example 50, 1-(3-((5-amino-6-chloropyrimidin-4-yl)amino)-4-(4-methylpiperazin-1-yl)phenyl)-N,N-dimethyl-1H-1,2,3-triazole-4-carboxamide]		Yes	29.6 µM	35.5 µM		
